Results from patent publication US11384172B2, “Polymer, antimicrobial agent, disinfectant, antimicrobial material, disinfectant material, antimicrobial method, and disinfecting method” (JSR CORPORATION, priority 2015, dated 2022).

Experiments:
Test in all cases: Antimicrobial and disinfecting properties test (liquid medium dilution series, visual turbidity)
Format in all cases: cell-based
Details in all cases: 37° C., 16 hours
[1] = tested on: E. coli (IMP-1 producing strain, ST131)
Description: (§1) Into 500 mL of hexane, 10 g of the polymer obtained in each of the above Synthesis Examples was added dropwise over 2 hours, and then vacuum drying was performed at 40° C. for 24 hours. The powder thus obtained was used for a test.
(§2) 30.4 g of a medium (Mueller Hinton II) was weighed out, and dissolved in 800 mL of sterile water, and the resultant mixture was subjected to an autoclave treatment at 121° C. and 2 atm for 15 minutes.
(§3) Each of the bacteria of the following (1) to (8) was suspended in 1 mL of the liquid medium obtained in the above “preparation of liquid medium”, OD600 was measured, and a liquid medium was added so that the amount of bacteria is 1×10^8 cfu/mL to prepare each of the bacterial liquids.
(4) E. coli (IMP-1 producing strain, ST131)
(§4) A polymer (A-1) and water were mixed to prepare 10 mg/mL of a polymer aqueous solution. […]
(§5) The turbidity of each of the wells was visually discriminated and the growing state of the bacteria was confirmed. The concentrations of the dilution series, at which it was visually determined that the antimicrobial action and disinfecting action were performed without cloudiness, are shown in Table 3.
(§6) The antimicrobial and the disinfecting properties were evaluated in a similar manner as in Example 1 except that each of the compounds shown in Table 3 was used in place of the polymer (A-1) in Example 1. […]

[2] = tested on: MRSA (S. aureus methicillin-resistant strain)
Description: as §1, §2, §3
(8) MRSA (S. aureus methicillin-resistant strain)
as §4, §5, §6

[3] = tested on: E. coli (drug sensitive strain, DH5α)
Description: as §1, §2, §3
(1) E. coli (drug sensitive strain, DH5α)
as §4, §5, §6

[4] = tested on: A. baumannii (OXA-23 producing strain, ST2)
Description: as §1, §2, §3
(6) A. baumannii (OXA-23 producing strain, ST2)
as §4, §5, §6

[5] = tested on: Pseudomonas aeruginosa (MP-1 producing strain, ST235)
Description: as §1, §2, §3
(7) Pseudomonas aeruginosa (MP-1 producing strain, ST235)
as §4, §5, §6

[6] = tested on: S. aureus (drug sensitive strain, ATCC29213)
Description: as §1, §2, §3
(2) S. aureus (drug sensitive strain, ATCC29213)
as §4, §5, §6

[7] = tested on: E. coli (NDM-1 producing strain)
Description: as §1, §2, §3
(3) E. coli (NDM-1 producing strain)
as §4, §5, §6

[8] = tested on: Klebsiella pneumoniae (KPC-2 producing strain, ST258)
Description: (5) Klebsiella pneumoniae (KPC-2 producing strain, ST258)
Into 897.6 μL of the prepared liquid medium, 102.4 μL of the above-described polymer aqueous solution was added so that the concentration of the polymer is 1024 μg/mL. This solution was diluted 2 times in wells of a 96-well plate to prepare a dilution series of 1024 μg/mL to 0.015625 μg/mL. Next, 5 μL of a bacterial liquid was added to each of the wells and incubated at 37° C. for 16 hours.

**Q.** Which “concentration of the dilution series at which antimicrobial and disinfecting action was visually determined without cloudiness” value (“concentration … determined without cloudiness” below) [1] does the source give for `N=C(N)NC(N)=Nc1ccccc1` [Phenyl biguanide, phenyl biguanide] here?
**A.** The value was 1024 µg/mL.

**Q.** And the “concentration … determined without cloudiness” value [2]?
**A.** The value was >1024 µg/mL.

**Q.** And the “concentration … determined without cloudiness” value [3]?
**A.** The value was >1024 µg/mL.

**Q.** What about the “concentration … determined without cloudiness” value [4] of the same compound?
**A.** The value was 1024 µg/mL.

**Q.** What about the “concentration … determined without cloudiness” value [5] of the same compound?
**A.** Its value is >1024 µg/mL.

**Q.** And the “concentration … determined without cloudiness” value [6]?
**A.** Its value is >1024 µg/mL.

**Q.** And the “concentration … determined without cloudiness” value [7]?
**A.** The value was 1024 µg/mL.

**Q.** What about the “concentration … determined without cloudiness” value [8] of the same compound?
**A.** Its value is >1024 µg/mL.
